Measurements as given in paper PMC3855329, “A Fluorescence-Based Thermal Shift Assay Identifies Inhibitors of Mitogen Activated Protein Kinase Kinase 4” (PLoS ONE, 2013).
Read-outs that look alike come from different tables or passages of the source.

Legend:
human MAP2K4-EE [1] = target: T1, human MAP2K4-EE (Homo sapiens, UniProt P45985, S257E/T261E); experiment: Fluorescence-based thermal shift (FTS) assay; assay type: binding; conditions: for ΔTm at 10 µM: 10 µM compound, mean ± SD
T1 construct: Human MAP2K4-EE (residues 37–399); His tag (pMCSG7 vector, TEV-cleavable) (N); made in house; host or cells: E. coli KRX cells with pGro7 (GroEL/GroES)
T1 sequence (P45985 37-399 S257E/T261E): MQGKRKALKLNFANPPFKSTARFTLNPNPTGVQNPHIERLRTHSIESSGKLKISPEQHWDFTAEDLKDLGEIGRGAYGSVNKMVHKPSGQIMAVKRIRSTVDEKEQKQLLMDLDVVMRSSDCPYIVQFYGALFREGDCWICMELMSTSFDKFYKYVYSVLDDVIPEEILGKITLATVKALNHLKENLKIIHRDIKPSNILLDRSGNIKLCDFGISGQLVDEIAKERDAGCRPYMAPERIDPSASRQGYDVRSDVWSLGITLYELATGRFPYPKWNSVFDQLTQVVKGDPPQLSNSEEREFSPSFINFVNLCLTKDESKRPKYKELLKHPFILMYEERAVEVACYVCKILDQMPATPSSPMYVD
Protocol: Small molecule screening by FTS assay was performed as described previously, [23] but with modifications, using an Echo550 (Labcyte) for compound transfer and a Mosquito (TTP Labtech) to dispense protein into 384 well PCR plates. Purified MAP2K4-EE was appropriately diluted in a buffer containing 100 mM Hepes, pH 7.5, 150 mM NaCl. […] The PCR plates were sealed with optical seal, shaken, and centrifuged after protein and compounds were added. […] Curve fitting, melting temperature calculation and report generation on the raw FTS data were performed using software developed by us. Initial screening with the 2000 compound Spectrum Collection was carried out in a pooled fashion. Specifically, 3 compounds were added at 10 µM concentration to each well and wells with positive Tm shift >2°C were then dissected to identify the responsible compound.

[2] = target: T2, MAP3K1 activated murine MAP2K4 (MAP2K4-AC) (Mus musculus, UniProt P47809); experiment: In vitro MAP2K4 kinase assay, JNK1 (K55M) substrate, Western blot densitometry; assay type: biochemical
T2 construct: purchased Millipore 14-377
T2 sequence (P47809 1-397): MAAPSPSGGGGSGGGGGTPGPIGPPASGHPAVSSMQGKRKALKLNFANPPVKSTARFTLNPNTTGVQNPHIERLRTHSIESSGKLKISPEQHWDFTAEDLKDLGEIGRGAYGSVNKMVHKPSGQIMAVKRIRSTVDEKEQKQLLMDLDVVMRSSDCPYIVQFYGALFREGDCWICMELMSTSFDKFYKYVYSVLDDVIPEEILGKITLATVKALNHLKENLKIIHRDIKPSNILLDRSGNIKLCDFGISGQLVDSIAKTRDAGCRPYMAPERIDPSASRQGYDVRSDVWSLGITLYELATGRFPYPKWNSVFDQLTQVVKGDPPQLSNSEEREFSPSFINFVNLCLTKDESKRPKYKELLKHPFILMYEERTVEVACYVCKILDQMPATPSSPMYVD
Protocol: In addition to activated MAP2K4, the in vitro kinase assay used either kinase dead JNK1-K55M (Abcam # ab95248) or kinase dead p38α MAPK-K53A (generously provided by Dr. Martin Watterson, Northwestern) as the substrate, ATP (Cell Signaling) and kinase assay buffer (25 mM Tris-HCl (pH 7.5), 5 mM beta-glycerophosphate, 2 mM dithiothreitol (DTT), 0.1 mM Na3VO4, 10 mM MgCl2). […] All other compounds were purchased from Sigma-Aldrich. To tubes containing 13 µl of 1.5X buffer on ice the assay reagents were added as indicated for a final reaction volume of 20 µL: 25 ng of MAP2K4-AC (stocks of 25 ng/uL were prepared and aliquoted from a 10 ug vial after the supplier concentration was verified using a Nanodrop 1000), inhibitors as denoted (from DMSO stock solutions), 1 µM final ATP, and 1 µg of JNK1 or p38 MAPK. […] All kinase assays were performed twice at separate times.
(§1) Twenty µl of reaction mixtures were separated by sodium dodecyl sulfate-polyacrylamide gel electrophoresis using precast 4–20% gradient gels (Biorad), per the manufacturers' instructions, and transferred onto 0.45 µm nitrocellulose membranes (Biorad). […] Bands were visualized with the aid of chemiluminescence reagents (GE Healthcare) after hybridization with a HRP conjugated rabbit secondary antibody (GE Healthcare). […] The bands were quantified using ImageJ software; normalized inhibitor-response data were plotted using Prism 6 to determine relative IC50 values.

[3] = target: T2, MAP3K1 activated murine MAP2K4 (MAP2K4-AC); experiment: In vitro MAP2K4 kinase assay, p38α MAPK (K53A) substrate, Western blot densitometry; assay type: biochemical
Protocol: In addition to activated MAP2K4, the in vitro kinase assay used either kinase dead JNK1-K55M (Abcam # ab95248) or kinase dead p38α MAPK-K53A (generously provided by Dr. Martin Watterson, Northwestern) as the substrate, ATP (Cell Signaling) and kinase assay buffer (25 mM Tris-HCl (pH 7.5), 5 mM beta-glycerophosphate, 2 mM dithiothreitol (DTT), 0.1 mM Na3VO4, 10 mM MgCl2). […] Geraldol, 2′,4′-dihydroxychalcone and 3,2′-dihyrdoxy-4,4′,6′-trimethoxychalcone were purchased from Indofine Chemical Company. All other compounds were purchased from Sigma-Aldrich. To tubes containing 13 µl of 1.5X buffer on ice the assay reagents were added as indicated for a final reaction volume of 20 µL: 25 ng of MAP2K4-AC (stocks of 25 ng/uL were prepared and aliquoted from a 10 ug vial after the supplier concentration was verified using a Nanodrop 1000), inhibitors as denoted (from DMSO stock solutions), 1 µM final ATP, and 1 µg of JNK1 or p38 MAPK. […] All kinase assays were performed twice at separate times.
as §1

human MAP2K4-EE [4] = target: T1, human MAP2K4-EE; experiment: Fluorescence-based thermal shift (FTS) assay; assay type: binding; conditions: 1 mM ligand
MMP-2 expression = test system: MMP-2 expression; parameters: method as in PMID 19638505; conditions: prospective administration to humans; cited from earlier work
human PCa cells = test system: human PCa cells; parameters: method as in PMID 18339885; conditions: orthotopically implanted into mice; cited from earlier work
[5] = kinase dead JNK1-K55M substrate, 1 µM ATP, mean (95% confidence intervals), read-out: IC50-JNK1
[6] = kinase dead p38α MAPK-K53A substrate, 1 µM ATP, mean (95% confidence intervals), read-out: IC50-p38

Q: Which “ΔTm at 10 µM” value (human MAP2K4-EE [1]; n = 3, 10 µM) does the source give for `Nc1ncnc2c1c(I)cn2[C@@H]1O[C@H](CO)[C@@H](O)[C@H]1O` [5-iodotubercidin] here?
A: 4.29±0.07 °C

Q: And the ΔTm at 10 µM (human MAP2K4-EE [1]; n = 3, read-out: ΔTm at 10 µM)?
A: 4.3 °C

Q: What about the IC50 [2, 5] of the same molecule?
A: 2.8 µM

Q: What about the IC50 [3, 6] of the same molecule?
A: 0.2 µM

Q: Which “shift in Tm (ΔTm)” value (human MAP2K4-EE [4]) does the source give for `Nc1ncnc2c1ncn2[C@@H]1O[C@H](COP(=O)(O)OP(=O)(O)NP(=O)(O)O)[C@@H](O)[C@H]1O` [AMP-PNP] here?
A: highest ΔTm values

Q: Which “ΔTm at 10 µM” value (human MAP2K4-EE [1]; n = 3, 10 µM) does the source give for `O=c1cc(-c2ccccc2)oc2cc(O)cc(O)c12` [Chrysin, 5,7-dihydroxyflavone] here?
A: 1.78±0.42 °C

Q: What about the ΔTm at 10 µM (human MAP2K4-EE [1]; n = 3, read-out: ΔTm at 10 µM) of the same molecule?
A: 1.8 °C

Q: What about the IC50 [3, 6] of the same molecule?
A: 10.1 µM

Q: Which “ΔTm at 10 µM” value (human MAP2K4-EE [1]; n = 3, 10 µM) does the source give for `O=C(/C=C/c1ccccc1)c1ccc(O)cc1O` [2′,4′-dihydroxychalcone] here?
A: 3.67±0.50 °C

Q: And the ΔTm at 10 µM (human MAP2K4-EE [1]; n = 3, read-out: ΔTm at 10 µM)?
A: 3.7 °C

Q: What about the IC50 [3, 6] of the same molecule?
A: 16.9 µM

Q: For `NCC(=O)O` [L-glycine], which “shift in Tm (ΔTm)” value (human MAP2K4-EE [4]) is on record?
A: did not induce thermal stability

Q: For `COc1cc(-c2oc3cc(O)ccc3c(=O)c2O)ccc1O` [Geraldol, 3,4′,7-Trihydroxy-3′-methoxyflavone], which IC50 [3] is on record?
A: 0.8 µM

Q: With `O=c1cc(-c2ccc(O)cc2)oc2cc(O)cc(O)c12` [Apigenin] as the molecule, how does the ΔTm at 10 µM (human MAP2K4-EE [1]; n = 3, read-out: ΔTm at 10 µM) read?
A: 2.8 ± 0.23 °C

Q: What about the IC50 [2, 5] of the same molecule?
A: 20.1 µM

Q: And the IC50 [3, 6]?
A: 15.9 µM

Q: What does the source list for `O=c1c(O)c(-c2ccc(O)c(O)c2)oc2cc(O)cc(O)c12` [Quercetin]?
A: ΔTm at 10 µM (human MAP2K4-EE [1]; n = 3, read-out: ΔTm at 10 µM): 2.75 ± 0.22 °C; IC50 [2, 5]: 1.7 µM; IC50 [3, 6]: 2 µM

Q: With `O=c1c(-c2ccc(O)cc2)coc2cc(O)ccc12` [Daidzein] as the molecule, how does the “thermal stabilization of MAP2K4 (concentration dependent thermal shift)” value (human MAP2K4-EE [1]; 1, 10 and 25 µM) read?
A: no such thermal stabilization effect

Q: What about the “inhibition of MAP2K4 activity” value ([3]; concentrations of up to 200 µM, p38 MAPK (K53A) or JNK1 (K55M) substrates) of the same molecule?
A: does not inhibit

Q: What does the source list for `COc1cc(/C=C(\C#N)C(N)=O)cc(CSc2nc3ccccc3s2)c1O` [AG825]?
A: ΔTm at 10 µM (human MAP2K4-EE [1]; n = 3, 10 µM): 2.26±0.15 °C; ΔTm at 10 µM (human MAP2K4-EE [1]; n = 3, read-out: ΔTm at 10 µM): 2.3 °C; IC50 [2, 5]: 25 µM; IC50 [3, 6]: 28.5 µM

Q: With `O=C1c2ccccc2-c2n[nH]c3cccc1c23` [SP600125] as the molecule, how does the “ΔTm at 10 µM” value (human MAP2K4-EE [1]; n = 3, 10 µM) read?
A: 6.4±0.06 °C

Q: And the ΔTm at 10 µM (human MAP2K4-EE [1]; n = 3, read-out: ΔTm at 10 µM)?
A: > 4 °C

Q: What about the IC50 [2, 5] of the same molecule?
A: 0.7 µM

Q: What about the IC50 [3, 6] of the same molecule?
A: 0.4 µM

Q: Which “shift in Tm (ΔTm)” value (human MAP2K4-EE [4]) does the source give for `Nc1ncnc2c1ncn2[C@@H]1O[C@H](COP(=O)(O)OP(=O)(O)OP(=O)(O)O)[C@@H](O)[C@H]1O` [ATP] here?
A: > 10 °C

Q: What does the source list for `Cc1ccc(-c2nn(C(C)(C)C)c3ncnc(N)c23)cc1` [PP1]?
A: ΔTm at 10 µM (human MAP2K4-EE [1]; n = 3, 10 µM): 2.55±0.03 °C; ΔTm at 10 µM (human MAP2K4-EE [1]; n = 3, read-out: ΔTm at 10 µM): 2.5 °C; IC50 [2]: 16.9 µM; IC50 [3]: 13.8 µM

Q: Which results are given for `O=c1c(-c2ccc(O)cc2)coc2cc(O)cc(O)c12` [genistein, 4,5,7-trihydroxyisoflavone]?
A: MMP-2 expression in prostate tissue (MMP-2 expression): selectively decreases MMP-2 expression; metastasis of human PCa cells (human PCa cells): inhibits the metastasis

Q: For `O=C(CCc1ccc(O)cc1)c1c(O)cc(O)cc1O` [Phloretin], which “ΔTm at 10 µM” value (human MAP2K4-EE [1]; n = 3, 10 µM) is on record?
A: 2.69±0.33 °C

Q: What about the ΔTm at 10 µM (human MAP2K4-EE [1]; n = 3, read-out: ΔTm at 10 µM) of the same molecule?
A: 2.7 °C

Q: With `CC(C)(C)n1nc(-c2ccc(Cl)cc2)c2c(N)ncnc21` [PP2] as the molecule, how does the “ΔTm at 10 µM” value (human MAP2K4-EE [1]; n = 3, 10 µM) read?
A: 2.33±0.04 °C

Q: And the ΔTm at 10 µM (human MAP2K4-EE [1]; n = 3, read-out: ΔTm at 10 µM)?
A: 2.3 °C

Q: And the IC50 [2]?
A: 22.3 µM

Q: And the IC50 [3]?
A: 39.9 µM

Q: With `O=C1c2ccccc2C(=O)c2c1ccc(O)c2O` [Alizarin, 1,2-dihydroxyanthraquinone] as the molecule, how does the IC50 [3] read?
A: 0.9 µM

Q: With `O=c1c(O)c(-c2ccccc2)oc2cc(O)ccc12` [3,7-dihydroxyflavone] as the molecule, how does the “ΔTm at 10 µM” value (human MAP2K4-EE [1]; n = 3, 10 µM) read?
A: 2.55±0.20 °C

Q: What about the ΔTm at 10 µM (human MAP2K4-EE [1]; n = 3, read-out: ΔTm at 10 µM) of the same molecule?
A: 2.5 °C

Q: And the IC50 [3, 6]?
A: 0.8 µM
